Assay results published in PubChem BioAssay AID1963846 (Molecular Pharmacology Branch, DTP, NCI, 2024).

Tested on: 454973-116-R2-J3-PDC complex spheroid viability
Test: Anticancer human tumor 454973-116-R2-J3-PDC patient-derived pancreatic carcinoma cell line growth inhibition [POLQ]
Details: for IC50: curve of first compound; for viability, T/C: stronger effect = lower value
In short: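 PDC + HUVEC + MSC complex spheroids; POLQ inhibitors ± partner drugs; top conc. at/near clinical Cmax, else 10 microM (SN-38 1 microM), half-log dilutions; 37 degrees C, 5% CO2.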

[1] = second compound 0.0316 µM, first compound 0.0316 µM
[2] = second compound 0.0316 µM, first compound 0.1 µM
[3] = second compound 0.0316 µM, first compound 0.316 µM
[4] = second compound 0.0316 µM, first compound 1 µM
[5] = second compound 0.0316 µM, first compound 3.16 µM
[6] = second compound 0.0316 µM, first compound 10 µM
[7] = second compound 0.1 µM, first compound 0.0316 µM
[8] = second compound 0.1 µM, first compound 0.1 µM
[9] = second compound 0.1 µM, first compound 0.316 µM
[10] = second compound 0.1 µM, first compound 1 µM
[11] = second compound 0.1 µM, first compound 3.16 µM
[12] = second compound 0.1 µM, first compound 10 µM
[13] = second compound 0.316 µM, first compound 0.0316 µM
[14] = second compound 0.316 µM, first compound 0.1 µM
[15] = second compound 0.316 µM, first compound 0.316 µM
[16] = second compound 0.316 µM, first compound 1 µM
[17] = second compound 0.316 µM, first compound 3.16 µM
[18] = second compound 0.316 µM, first compound 10 µM
[19] = second compound 1 µM, first compound 0.0316 µM
[20] = second compound 1 µM, first compound 0.1 µM
[21] = second compound 1 µM, first compound 0.316 µM
[22] = second compound 1 µM, first compound 1 µM
[23] = second compound 1 µM, first compound 3.16 µM
[24] = second compound 1 µM, first compound 10 µM
[25] = second compound 3.16 µM, first compound 0.0316 µM
[26] = second compound 3.16 µM, first compound 0.1 µM
[27] = second compound 3.16 µM, first compound 0.316 µM
[28] = second compound 3.16 µM, first compound 1 µM
[29] = second compound 3.16 µM, first compound 3.16 µM
[30] = second compound 3.16 µM, first compound 10 µM
[31] = second compound 10 µM, first compound 0.0316 µM
[32] = second compound 10 µM, first compound 0.1 µM
[33] = second compound 10 µM, first compound 0.316 µM
[34] = second compound 10 µM, first compound 1 µM
[35] = second compound 10 µM, first compound 3.16 µM
[36] = second compound 10 µM, first compound 10 µM
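Further: spheroids exposed to drugs for seven days before measurement.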
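Wherever viability, T/C is given: percent viability relative to DMSO vehicle control wells taken as 100%.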

## CC1COCCN1c1cc(C2(S(C)(=N)=O)CC2)nc(-c2ccnc3[nH]ccc23)n1 (centres undefined) + Cc1cccc(N(C)C(=O)C2C(O)CCN2c2nc(C)cc(C(F)(F)F)c2C#N)c1
Second compound 0.0316 µM
  IC50: 6.39 µM
Second compound 0.1 µM
  IC50: 6.9 µM
Second compound 0.316 µM
  IC50: 5.75 µM
Second compound 1 µM
  IC50: 5.92 µM
Second compound 3.16 µM
  IC50: 6.6 µM
Second compound 10 µM
  IC50: 5.9 µM
[1]
  viability, T/C: 111%
[2]
  viability, T/C: 105%
[3]
  viability, T/C: 103%
[4]
  viability, T/C: 108%
[5]
  viability, T/C: 85.2%
[6]
  viability, T/C: 27.4%
[7]
  viability, T/C: 111%
[8]
  viability, T/C: 116%
[9]
  viability, T/C: 105%
[10]
  viability, T/C: 104%
[11]
  viability, T/C: 75.2%
[12]
  viability, T/C: 37.9%
[13]
  viability, T/C: 104%
[14]
  viability, T/C: 107%
[15]
  viability, T/C: 111%
[16]
  viability, T/C: 110%
[17]
  viability, T/C: 72.4%
[18]
  viability, T/C: 29.4%
[19]
  viability, T/C: 111%
[20]
  viability, T/C: 113%
[21]
  viability, T/C: 114%
[22]
  viability, T/C: 109%
[23]
  viability, T/C: 75%
[24]
  viability, T/C: 29.1%
[25]
  viability, T/C: 117%
[26]
  viability, T/C: 112%
[27]
  viability, T/C: 113%
[28]
  viability, T/C: 96.3%
[29]
  viability, T/C: 80.8%
[30]
  viability, T/C: 33%
[31]
  viability, T/C: 114%
[32]
  viability, T/C: 112%
[33]
  viability, T/C: 106%
[34]
  viability, T/C: 102%
[35]
  viability, T/C: 74.6%
[36]
  viability, T/C: 28.8%

## CCCS(=O)(=O)Nc1ccc(F)c(C(=O)c2c[nH]c3ncc(-c4ccc(Cl)cc4)cc23)c1F + Cc1cccc(N(C)C(=O)C2C(O)CCN2c2nc(C)cc(C(F)(F)F)c2C#N)c1
Second compound 0.0316 µM
  IC50: 8.18 µM
Second compound 0.1 µM
  IC50: 8.77 µM
Second compound 0.316 µM
  IC50: 8.92 µM
Second compound 1 µM
  IC50: 8.4 µM
Second compound 3.16 µM
  IC50: 8.13 µM
Second compound 10 µM
  IC50: 6.95 µM
[1]
  viability, T/C: 108%
[2]
  viability, T/C: 116%
[3]
  viability, T/C: 112%
[4]
  viability, T/C: 118%
[5]
  viability, T/C: 113%
[6]
  viability, T/C: 36.7%
[7]
  viability, T/C: 105%
[8]
  viability, T/C: 111%
[9]
  viability, T/C: 115%
[10]
  viability, T/C: 122%
[11]
  viability, T/C: 111%
[12]
  viability, T/C: 42.1%
[13]
  viability, T/C: 108%
[14]
  viability, T/C: 116%
[15]
  viability, T/C: 118%
[16]
  viability, T/C: 113%
[17]
  viability, T/C: 123%
[18]
  viability, T/C: 42.7%
[19]
  viability, T/C: 136%
[20]
  viability, T/C: 110%
[21]
  viability, T/C: 114%
[22]
  viability, T/C: 111%
[23]
  viability, T/C: 126%
[24]
  viability, T/C: 37.3%
[25]
  viability, T/C: 117%
[26]
  viability, T/C: 110%
[27]
  viability, T/C: 104%
[28]
  viability, T/C: 105%
[29]
  viability, T/C: 115%
[30]
  viability, T/C: 36.8%
[31]
  viability, T/C: 120%
[32]
  viability, T/C: 112%
[33]
  viability, T/C: 110%
[34]
  viability, T/C: 111%
[35]
  viability, T/C: 118%
[36]
  viability, T/C: 20.3%
